Measurements taken from patent US20230114728A1 (Venatorx Pharmaceuticals, Inc., priority 2019, published 2023).
≈ marks a conversion by molar mass, not a printed value.

Assays:
E. coli K12 PBP3 = biological target: T1, E. coli K12 PBP3 (Escherichia coli, UniProt P0AD68); assay: biochemical; assay type: binding
T1 construct: made in house
Method in brief: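 A. baumannii PBP2 (2.5 μM) and PBP3 (0.2 μM) were run in 25 mM Tris pH 8.0 buffer with Tween 20; E. coli PBP3 (1.5 μM) and N. gonorrhoeae PBP2 ([…]) in 50 mM Hepes pH 8.0 buffer.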

A. baumannii ATCC 19606 = assay: Broth microdilution MIC in CAMHB; assay type: cell-based; conditions: Acinetobacter baumannii, ATCC19606; MHB; read-out: Minimum Inhibitory Concentration, A. baumannii ATCC 19606
Method in brief: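 CLSI broth microdilution in CAMHB: 2-fold compound dilutions inoculated at 2-8×10^5 CFU/mL from 3-5 h log-phase cultures. Incubated at 37 °C for 16-20 h (Enterobacteriaceae, Pseudomonas); MIC read visually as lowest concentration without growth. Strains include hyper-permeable and efflux-deficient mutants.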

E. coli 901C = assay: Broth microdilution MIC in CAMHB; assay type: cell-based; conditions: Escherichia coli; E. coli 901C (hyper-permeable); MHB; read-out: Minimum Inhibitory Concentration, E. coli 901C
Method in brief: (§1)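 CLSI microdilution; CAMHB; inoculum 2-8×10^5 CFU/mL from 3-5 h 37° C culture; 2-fold compound series; 16-20 h, 37° C; MIC = lowest well without visible growth.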

E. coli AG100 = assay: Broth microdilution MIC in CAMHB; assay type: cell-based; conditions: Escherichia coli; E. coli AG100 (wild-type parent); MHB; read-out: Minimum Inhibitory Concentration, E. coli AG100
Method in brief: as §1

E. coli ATCC 25922 = assay: Broth microdilution MIC in CAMHB; assay type: cell-based; conditions: Escherichia coli, ATCC25922; E. coli ATCC 25922; MHB; read-out: Minimum Inhibitory Concentration, E. coli 25922
Method in brief: as §1

E. coli D22 = assay: Broth microdilution MIC in CAMHB; assay type: cell-based; conditions: Escherichia coli; E. coli D22 (hyper-permeable); MHB; read-out: Minimum Inhibitory Concentration, E. coli D22
Method in brief: as §1

[1] = test system: K. pneumoniae 848844 producing SHV-11 and KPC-2; assay: Broth microdilution MIC in CAMHB; assay type: cell-based; conditions: Klebsiella pneumoniae, read-out: Minimum Inhibitory Concentration, K. pneumoniae 848844
Method in brief: as §1

[2] = test system: K. pneumoniae UMM producing SHV-5 and KPC-2; assay: Broth microdilution MIC in CAMHB; assay type: cell-based; conditions: Klebsiella pneumoniae, read-out: Minimum Inhibitory Concentration, K. pneumoniae UMM
Method in brief: as §1

[3] = test system: P. aeruginosa (ΔmexAB-oprM); assay: Broth microdilution MIC in CAMHB; assay type: cell-based; conditions: Pseudomonas aeruginosa, read-out: Minimum Inhibitory Concentration, P. aeruginosa ΔmexAB-OprM
Method in brief: as §1

T1 sequence (P0AD68 1-577): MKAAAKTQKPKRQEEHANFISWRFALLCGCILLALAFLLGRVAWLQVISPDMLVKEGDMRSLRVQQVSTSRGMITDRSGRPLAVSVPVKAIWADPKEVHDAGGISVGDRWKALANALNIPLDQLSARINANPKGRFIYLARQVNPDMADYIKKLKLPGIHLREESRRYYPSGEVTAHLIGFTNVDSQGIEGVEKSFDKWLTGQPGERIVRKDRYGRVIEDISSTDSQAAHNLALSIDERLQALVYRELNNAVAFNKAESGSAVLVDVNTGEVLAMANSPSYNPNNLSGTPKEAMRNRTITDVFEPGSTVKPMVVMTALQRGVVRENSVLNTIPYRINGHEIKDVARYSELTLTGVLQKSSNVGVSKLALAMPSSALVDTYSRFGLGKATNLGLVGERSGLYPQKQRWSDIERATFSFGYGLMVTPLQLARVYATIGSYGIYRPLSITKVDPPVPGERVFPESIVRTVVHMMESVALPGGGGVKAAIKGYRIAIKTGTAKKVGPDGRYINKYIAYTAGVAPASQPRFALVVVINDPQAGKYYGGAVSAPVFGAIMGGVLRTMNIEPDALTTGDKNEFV

SMILES | EC50 (E. coli K12 PBP3) | MIC (A. baumannii ATCC 19606) | MIC (E. coli 901C) | MIC (E. coli AG100) | MIC (E. coli ATCC 25922) | MIC (E. coli D22) | MIC [1] | MIC [2] | MIC [3]
NCCN1CCN(C(=O)N[C@@H](C(=O)N[C@H]2Cc3cccc(C(=O)O)c3OB2O)c2ccc(C(=O)O)cc2)C(=O)C1=O (single isomer, unassigned) [Example 84] | < 30 µM | > 128 µg/mL | 0.5 to 1 µg/mL (≈ 0.881 to 1.76 µM) | 8 to 16 µg/mL (≈ 14.1 to 28.2 µM) | 8 to 16 µg/mL (≈ 14.1 to 28.2 µM) | 2 to 4 µg/mL (≈ 3.53 to 7.05 µM) | 32 to 64 µg/mL (≈ 56.4 to 113 µM) | 8 to 16 µg/mL (≈ 14.1 to 28.2 µM) | 8 to 16 µg/mL (≈ 14.1 to 28.2 µM)
NCCN1CCN(C(=O)NC(C(=O)N[C@H]2Cc3cccc(C(=O)O)c3OB2O)c2cc(Cl)c(O)cc2F)C(=O)C1=O (stereo partly drawn) [Example 87, (3R)-3-(2-(4-(2-aminoethyl)-2,3-dioxopiperazine-1-carboxamido)-2-(5-chloro-2-fluoro-4-hydroxyphenyl)acetamido)-2-hydroxy-3,4-dihydro-2H-benzo[e][1,2]oxaborinine-8-carboxylic acid] | < 30 µM | > 128 µg/mL | < 0.25 µg/mL | 8 to 16 µg/mL (≈ 13.5 to 27 µM) | 8 to 16 µg/mL (≈ 13.5 to 27 µM) | 2 to 4 µg/mL (≈ 3.38 to 6.76 µM) | 32 to 64 µg/mL (≈ 54.1 to 108 µM) | 8 to 16 µg/mL (≈ 13.5 to 27 µM) | 8 to 16 µg/mL (≈ 13.5 to 27 µM)
